Assay results taken from US20090048295A1, “SUBSTITUTED 5,6,7,8-TETRAHYDROQUINOLINE DERIVATIVES, COMPOSITIONS, AND METHODS OF USE THEREOF” (priority 2007, published 2009).
Several values for one entry are separate records, joined by “and”; a condition that tells them apart may be missing. Equal values may be shown once. Read-outs that look alike come from different tables or passages of the source.

Assays:
[1] = molecular target: T1, C5a receptor (Homo sapiens, UniProt P21730); test: Calcium Mobilization Assay (C5a-induced Ca2+ mobilization, FLIPR, differentiated U937 cells); type: cell-based; design: endogenous in cells; host or cells: U937 cells differentiated with dibutyryl cAMP; settings: […] recombinant human C5a, 20 min pre-incubation, multiple values = duplicate experiments, read-out: C5a Induced Ca Mobil. Average IC50
T1 sequence (P21730 1-350): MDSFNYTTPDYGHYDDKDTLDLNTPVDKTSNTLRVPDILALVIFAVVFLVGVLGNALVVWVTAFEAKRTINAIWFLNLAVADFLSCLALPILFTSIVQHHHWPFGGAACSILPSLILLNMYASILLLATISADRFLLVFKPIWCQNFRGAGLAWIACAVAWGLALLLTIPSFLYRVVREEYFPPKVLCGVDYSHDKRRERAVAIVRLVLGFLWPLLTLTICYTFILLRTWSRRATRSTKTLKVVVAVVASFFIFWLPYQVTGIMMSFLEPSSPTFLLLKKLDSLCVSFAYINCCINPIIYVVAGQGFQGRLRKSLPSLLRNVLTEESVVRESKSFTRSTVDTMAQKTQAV
Experimental: U937 cells (human monocytic cell line) were cultured in RPMI-1640 medium supplemented with 10% fetal bovine serum, 10 mM HEPES, 0.11 g/L pyruvate, 0.29 g/L L-glutamine, 100 IU/mL penicillin G and […] streptomycin. Dibutyryl cAMP (1 mM) was added to induce differentiation 2 or 3 days prior to loading the cells with 4.4 μM Fluo-3AM (Molecular Probes) for 30 min at 37° C. in RPMI medium containing 20 mM HEPES, 0.1% bovine serum albumin (BSA) and 5 mM probenecid. After washing, cells were dissolved at 2×10^6 cells/ml in HBSS buffer (Invitrogen 14190-094) supplemented with 10 mM HEPES, 2.5 mM probenecid and 0.1% BSA (pH=7.4), and sedimented by 1 min centrifugation (1500 rpm) in black 96-well plates (Costar) (200,000 cells/well). A 100× concentration range of test compounds was prepared in DMSO and further diluted in HBSS buffer. U937 cells were pre-incubated with compound for 20 minutes at room temperature (1% DMSO), before recombinant human C5a (Sigma) was added to the cells (1.5 nM). Changes in intracellular free Ca^2+ concentration were measured using the Fluorescent Imaging Plate Reader (FLIPR, Molecular Devices). Fluorescence was recorded every second from 10 seconds before the addition of C5a until 2 min after the addition. The maximal fluorescence obtained during this time frame was used for further calculations.

[2] = molecular target: T1, C5a receptor; test: [125I]-C5a Radioligand Binding Assay (competition binding, differentiated U937 cells); settings: [125I]-C5a 0.05 nM, U937 cells, multiple values = duplicate experiments; for inhibition at 1 µM: read-out: [125I]-C5a Binding % Inhibition 1 μM, test compound 1 μM; for inhibition at 10 µM: read-out: [125I]-C5a Binding % Inhibition 10 μM, test compound 10 μM; for [125I]-C5a Binding % Inhibition 1 μM: test compound 1 μM; for [125I]-C5a Binding % Inhibition 10 μM: test compound 10 μM;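 as to all read-outs here: cells preincubated with compound 30 min at room temperature, then 60 min at 4 °C with radioligand, bound counts read by scintillation, nonspecific binding defined with 100 nM C5a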
Experimental: (§1) Competition binding assays for C5a receptors were performed by incubation of differentiated U937 cells (200,000 cells/well), test compound (1% DMSO) and [^125I]-C5a (Bolton & Hunter labeled, Perkin Elmer, specific activity=2200 Ci/mmol, 0.05 nM final) in binding buffer consisting of 50 mM HEPES, 5 mM MgCl2, 1 mM CaCl2, 0.5% protease-free BSA, 0.02% NaN3, pH 7.4. 100× solutions of test compounds were prepared in DMSO and further diluted in binding buffer. Non-specific binding was defined in wells containing 100 nM recombinant C5a. Cells and compound were pre-incubated for 30 min at RT. After addition of the radioligand, further incubation for 60 min occurred at 4° C. Cells were harvested on GF/B filters—presoaked in 0.5% polyethylenimine, followed by washing with binding buffer containing 500 mM NaCl, pH 7.4. Filter bound radioactivity was determined by liquid scintillation counting. IC50 and Ki values were calculated using non-linear regression in Graphpad Prism. Ki is calculated using the equation of Cheng and Prusoff (Biochem. Pharmacol. 1973, 22: 3099-3108)

[3] = molecular target: T1, C5a receptor; test: biochemical
Experimental: as §1

[4] = molecular target: T1, C5a receptor
Experimental: as §1

Compound	IC50 [1]	inhibition at 1 µM [2]	inhibition at 10 µM [2]	[125I]-C5a Binding % Inhibition 1 μM [2]	[125I]-C5a Binding % Inhibition 10 μM [2]	Ki [3]	Ki [4]
CCN(c1cccc2ccccc12)C1CCCc2nc(-c3ccccc3F)cc(OC)c21 (stereo not drawn) [Compound 73]	4.59 µM		80%	55% and 34%	70%		3.69 µM
CCc1cccc(CC)c1-c1cc(OC)c2c(n1)CCCC2N1CCc2ccccc2C1 (stereo not drawn) [Compound 31]			87%	77% and 94% and 96% and 69%	101% and 100% and 83%		0.035 µM
CCc1cccc(CC)c1-c1cc(OC)c2c(n1)CCCC2N(C)c1ccccc1 (stereo not drawn) [Compound 82]	7.94 µM	66%	81%	55%	76%		0.678 µM
CCc1cccc(CC)c1-c1cc(OC)c2c(n1)CCCC2Nc1cc(OC)ccc1C (stereo not drawn) [Compound 11]		88%	92%	96%	97%		0.01 µM
CCc1cccc(CC)c1-c1cc(OC)c2c(n1)CCCC2NC1Cc2ccccc2C1 (stereo not drawn) [Compound 88]	> 10 µM	25%	51%				
CCc1cccc(CC)c1-c1cc(OC)c2c(n1)CCCC2N1CCc2c(cccc2C(=O)O)C1 (stereo not drawn) [Compound 129]	> 10 µM	-46%	-20%				
CCc1cccc(CC)c1-c1cc(OC)c2c(n1)CCCC2N(CC)Cc1ccccc1 (stereo not drawn) [Compound 85]	> 10 µM	56%	75%	49%	79%	0.963 µM	
CCN(c1cccc2ccccc12)C1CCCc2nc(-c3cccc4ccccc34)cc(OC)c21 (stereo not drawn) [Compound 78]	5.86 µM	71%	85%	72%	95%		0.368 µM
CCc1cccc(CC)c1-c1cc(OC)c2c(n1)CCCC2Oc1cccc2ccccc12 (stereo not drawn) [Compound 105]	> 10 µM	55%	70%				
CCc1cccc(CC)c1-c1cc(OC)c2c(n1)CCCC2N(C)Cc1cccs1 (stereo not drawn) [Compound 94]	> 10 µM	56%	77%				
COc1ccc2cccc(N(C)C3CCCc4nc(-c5c(C)cccc5C)cc(OC)c43)c2c1 (stereo not drawn) [Compound 116]	> 10 µM	87%	86%				
CCc1cccc(CC)c1-c1cc(OC)c2c(n1)CCCC2Nc1c(C)ccc2ccccc12 (stereo not drawn) [Compound 119]	> 10 µM	64%	74%				
COc1cc(-c2c(C)cccc2C)nc2c1C(N(C)c1cccc(Cl)c1C)CCC2 (stereo not drawn) [Compound 115]	> 10 µM	75%	80%				
CCc1cccc(CC)c1-c1cc(OC)c2c(n1)CCCC2N(C)Cc1ccccc1 (stereo not drawn) [Compound 123]	> 10 µM	3%	39%				
CCc1cccc(CC)c1-c1cc(OC)c2c(n1)CCCC2N1CCCC1 (stereo not drawn) [Compound 126]	> 10 µM	-11%	18%				
CCc1cccc(CC)c1-c1cc(OC)c2c(n1)CCCC2N1CCc2ccc(Cl)cc2C1 (stereo not drawn) [Compound 51]	1.41 µM	83%	89%				
CCN(c1cccc2ccccc12)C1CCCc2nc(-c3ccccc3)cc(OC)c21 (stereo not drawn) [Compound 133]							8.29 µM

The next lines start with the values.

IC50 [1]	inhibition at 1 µM [2]	inhibition at 10 µM [2]	[125I]-C5a Binding % Inhibition 1 μM [2]	[125I]-C5a Binding % Inhibition 10 μM [2]	Ki [3]	Ki [4]	Compound
1.77 µM	59%	83%	46%	88%	1.16 µM		CCN(c1cccc2ccccc12)C1CCCc2nc(-c3c(OC)cccc3OC)cc(OC)c21 (stereo not drawn) [Compound 58]
0.165 µM	84%	93%	99%	102% and 100%	0.0073 µM		CCc1cccc(CC)c1-c1cc(OC)c2c(n1)CCCC2N(C)c1cccc2ccccc12 (racemic) [Compound 20, (±)-[2-(2,6-Diethyl-phenyl)-4-methoxy-5,6,7,8-tetrahydro-quinolin-5-yl]-methyl-naphthlen-1-yl-amine]
1.9 µM			91%	89%		0.057 µM	CCc1cccc(CC)c1-c1cc(OC)c2c(n1)CCC[C@@H]2N(C)[C@@H]1CCCc2ccccc21 [Compound 59]
> 10 µM		68%	45% and 24%	80%	2.06 µM		CCc1cccc(CC)c1-c1cc(OC)c2c(n1)CCCC2N(C)C1Cc2ccccc2C1 (stereo not drawn) [Compound 95]
> 10 µM		75%	71% and 37%	77%	1.7 µM		CCc1cccc(CC)c1-c1cc(OC)c2c(n1)CCCC2N1Cc2ccccc2C1 (stereo not drawn) [Compound 89]
> 10 µM		83%	65% and 43%	78%	1.06 µM		CCc1cccc(CC)c1-c1ccc2c(n1)CCCC2N(CC)c1cccc2ccccc12 (racemic) [Compound 109, (±)-[2-(2,6-Diethyl-phenyl)-5,6,7,8-tetrahydro-quinolin-5-yl]-ethyl-naphthlen-1-yl-amine]
0.071 µM	91%	97%				0.013 µM	CCc1cccc(CC)c1-c1cc(OC)c2c(n1)CCCC2Nc1ccc(Cl)cc1CO (stereo not drawn) [Compound 9]
1.97 µM		83%		85%		0.179 µM	CCc1cccc(CC)c1-c1cc(Cl)c2c(n1)CCCC2N(CC)c1cccc2ccccc12 (stereo not drawn) [Compound 60]
0.647 µM	81%	87%	90%	98%	0.086 µM		CCc1ccccc1-c1cc(OC)c2c(n1)CCCC2N(CC)c1cccc2ccccc12 (racemic) [Compound 39, (±)-Ethyl-[2-(2-ethyl-phenyl)-4-methoxy-5,6,7,8-tetrahydro-quinolin-5-yl]-naphthlen-1-yl-amine]
1.48 µM	86%	86%					CCc1cccc(CC)c1-c1cc(OC)c2c(n1)CCCC2N(C)c1c(C)ccc2ccccc12 (stereo not drawn) [Compound 52]
0.266 µM	93%	94%	96%	99%		0.0097 µM	CCc1cccc(CC)c1-c1cc(OC)c2c(n1)CCCC2N1CCc2cccc(C(F)(F)F)c2C1 (stereo not drawn) [Compound 26]
0.732 µM	85%	86%					CCc1ccccc1NC1CCCc2nc(-c3c(CC)cccc3CC)cc(OC)c21 (stereo not drawn) [Compound 41]
1.49 µM	85%	91%					CCc1cccc(CC)c1-c1cc(OC)c2c(n1)CCCC2Nc1cc(Cl)ccc1C (stereo not drawn) [Compound 53]
2.19 µM	76%	88%					COc1cc(-c2c(C)cccc2C)nc2c1C(N(C)c1cccc3ccccc13)CCC2 (stereo not drawn) [Compound 61]
